PubChem BioAssay AID248 (DTP/NCI, 2004)
Where “and” joins values, the source holds several entries; their conditions need not be identical. Equal values may be shown once. Toxic doses and inconclusive results are not listed.

Tested on: L1210 leukemia ip in BDF1 mice, survival T/C
Assay: NCI In Vivo Anticancer Drug Screen. Data for tumor model L1210 Leukemia (intraperitoneal) in B6D2F1 (BDF1) mice
Conditions: endpoint: mean survival time, higher = longer survival
Procedure, shortened: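 In this screen, tumor-bearing mice given compound are compared to those given vehicle, and their survival values are reported as a treated-to-control quotient.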

[1] = dose: 100.0 mg/kg/injection, schedule: Q04DX003 (ip), vehicle: Klucel (hydroxypropylcellulose) (HPC)
[2] = dose: 200.0 mg/kg/injection, schedule: Q04DX003 (ip), vehicle: Klucel (hydroxypropylcellulose) (HPC)
[3] = dose: 400.0 mg/kg/injection, schedule: Q04DX003 (ip), vehicle: Klucel (hydroxypropylcellulose) (HPC)
[4] = dose: 100.0 mg/kg/injection, schedule: Q04DX003 (ip), vehicle: saline with Tween-80
[5] = dose: 200.0 mg/kg/injection, schedule: Q04DX003 (ip), vehicle: saline with Tween-80
[6] = dose: 400.0 mg/kg/injection, schedule: Q04DX003 (ip), vehicle: saline with Tween-80
[7] = dose: 100.0 mg/kg/injection, schedule: Q01DX001 (ip), vehicle: saline
[8] = dose: 400.0 mg/kg/injection, schedule: Q01DX001 (ip), vehicle: saline
[9] = dose: 100.0 mg/kg/injection, schedule: Q01DX009 (ip), vehicle: Klucel (hydroxypropylcellulose) (HPC)
[10] = dose: 200.0 mg/kg/injection, schedule: Q01DX009 (ip), vehicle: Klucel (hydroxypropylcellulose) (HPC)
[11] = dose: 400.0 mg/kg/injection, schedule: Q01DX009 (ip), vehicle: Klucel (hydroxypropylcellulose) (HPC)
[12] = dose: 100.0 mg/kg/injection, schedule: Q04DX002 (ip), vehicle: Klucel (hydroxypropylcellulose) (HPC)
[13] = dose: 200.0 mg/kg/injection, schedule: Q04DX002 (ip), vehicle: Klucel (hydroxypropylcellulose) (HPC)
[14] = dose: 400.0 mg/kg/injection, schedule: Q04DX002 (ip), vehicle: Klucel (hydroxypropylcellulose) (HPC)
[15] = dose: 100.0 mg/kg/injection, schedule: Q04DX003 (ip), vehicle: saline
[16] = dose: 200.0 mg/kg/injection, schedule: Q04DX003 (ip), vehicle: saline
[17] = dose: 100.0 mg/kg/injection, schedule: Q01DX009 (ip), vehicle: saline with Tween-80
[18] = dose: 200.0 mg/kg/injection, schedule: Q01DX009 (ip), vehicle: saline with Tween-80

O=S(=O)(O)c1cccc2c(S(=O)(=O)O)cccc12
T/C [1]: 107 % of control
T/C [2]: 100 % of control
T/C [3]: 97 % of control

O=C(C=C(C(F)(F)F)C(F)(F)F)c1ccc(Cl)cc1
T/C (dose: 3.13 mg/kg/injection, schedule: Q01DX009 (ip), vehicle: saline with Tween-80): 101 % of control
T/C (dose: 6.25 mg/kg/injection, schedule: Q01DX009 (ip), vehicle: saline with Tween-80): 97 % of control
T/C (dose: 12.5 mg/kg/injection, schedule: Q01DX009 (ip), vehicle: saline with Tween-80): 100 % of control
T/C (dose: 25.0 mg/kg/injection, schedule: Q01DX009 (ip), vehicle: saline with Tween-80): 97 % of control and 101 % of control
T/C (dose: 50.0 mg/kg/injection, schedule: Q04DX003 (ip), vehicle: saline with Tween-80): 91 % of control
T/C [4]: 86 % of control
T/C [5]: 86 % of control

Cc1ccc(NC(=O)NCCBr)cc1C
T/C [1]: 96 % of control
T/C [2]: 93 % of control
T/C [3]: 95 % of control

COC1OC(COC(c2ccccc2)(c2ccccc2)c2ccccc2)C(OC)C(OC)C1OC (stereo unspecified)
T/C [4]: 93 % of control
T/C [5]: 94 % of control
T/C [6]: 88 % of control

Cc1cccc(C[Si](C)C)c1
T/C [7]: 95 % of control and 104 % of control
T/C (dose: 200.0 mg/kg/injection, schedule: Q01DX001 (ip), vehicle: saline): 124 % of control
T/C [8]: 93 % of control and 98 % of control

CC(=O)OCC1OC(OC2CCCc3c(O)c4c(c(O)c32)C(=O)c2ccccc2C4=O)C(OC(C)=O)C(OC(C)=O)C1OC(C)=O (stereo unspecified)
T/C (dose: 40.0 mg/kg/injection, schedule: Q01DX001 (ip), vehicle: saline): 86 % of control
T/C (dose: 80.0 mg/kg/injection, schedule: Q01DX001 (ip), vehicle: saline): 92 % of control

O=C(c1cccnc1)n1cc2c(n1)C1=C(CCCC1)CC2
T/C [1]: 90 % of control
T/C [2]: 89 % of control
T/C [3]: 86 % of control

CC(C)C(O)c1c[nH]c(=O)[nH]c1=O (stereo unspecified)
T/C [9]: 91 % of control
T/C [10]: 105 % of control
T/C [11]: 96 % of control

CC(NC(=O)c1ccccc1)C(=O)O (stereo unspecified)
T/C (dose: 50.0 mg/kg/injection, schedule: Q01DX009 (ip), vehicle: Klucel (hydroxypropylcellulose) (HPC)): 110 % of control
T/C [9]: 91 % of control
T/C [12]: 90 % of control
T/C [13]: 108 % of control
T/C [14]: 93 % of control

CCOC(=O)CC1c2nc3ccccc3cc2CN1C(=O)OCC (stereo unspecified)
T/C [1]: 100 % of control
T/C [2]: 102 % of control
T/C [3]: 103 % of control

Nn1cnc2c(=S)nc[nH]c21
T/C (dose: 42.0 mg/kg/injection, schedule: Q01DX015 (ip), vehicle: other): 101 % of control
T/C (dose: 72.0 mg/kg/injection, schedule: Q01DX015 (ip), vehicle: other): 101 % of control
T/C (dose: 100.0 mg/kg/injection, schedule: Q01DX001 (ip), vehicle: other): 102 % of control
T/C (dose: 177.0 mg/kg/injection, schedule: Q01DX001 (ip), vehicle: other): 97 % of control
T/C (dose: 177.0 mg/kg/injection, schedule: Q01DX001 (ip), vehicle: saline): 102 % of control
T/C (dose: 200.0 mg/kg/injection, schedule: Q01DX001 (ip), vehicle: other): 102 % of control
T/C (dose: 200.0 mg/kg/injection, schedule: Q01DX015 (ip), vehicle: other): 86 % of control
T/C (dose: 266.0 mg/kg/injection, schedule: Q01DX001 (ip), vehicle: other): 115 % of control
T/C (dose: 266.0 mg/kg/injection, schedule: Q01DX001 (ip), vehicle: saline): 101 % of control
T/C (dose: 400.0 mg/kg/injection, schedule: Q01DX001 (ip), vehicle: other): 154 % of control and 164 % of control
T/C [8]: 104 % of control
T/C (dose: 600.0 mg/kg/injection, schedule: Q01DX001 (ip), vehicle: saline): 167 % of control

CCOCC(OC)OC
T/C (dose: 100.0 mg/kg/injection, schedule: Q01DX009 (ip), vehicle: saline): 95 % of control
T/C [15]: 93 % of control
T/C (dose: 200.0 mg/kg/injection, schedule: Q01DX009 (ip), vehicle: saline): 97 % of control
T/C [16]: 98 % of control
T/C (dose: 400.0 mg/kg/injection, schedule: Q01DX009 (ip), vehicle: saline): 97 % of control
T/C (dose: 400.0 mg/kg/injection, schedule: Q04DX003 (ip), vehicle: saline): 107 % of control

NNC(=O)c1n[nH]c(=S)[nH]c1=O
T/C (dose: 100.0 mg/kg/injection, schedule: Q01DX001 (ip), vehicle: carboxymethylcellulose (CMC)): 98 % of control
T/C (dose: 200.0 mg/kg/injection, schedule: Q01DX001 (ip), vehicle: carboxymethylcellulose (CMC)): 103 % of control
T/C (dose: 400.0 mg/kg/injection, schedule: Q01DX001 (ip), vehicle: carboxymethylcellulose (CMC)): 95 % of control

[I][Sn]([c]1ccccc1)([c]1ccccc1)[c]1ccccc1
T/C (dose: 0.25 mg/kg/injection, schedule: Q01DX009 (ip), vehicle: Klucel (hydroxypropylcellulose) (HPC)): 93 % of control
T/C (dose: 0.5 mg/kg/injection, schedule: Q01DX009 (ip), vehicle: Klucel (hydroxypropylcellulose) (HPC)): 101 % of control
T/C (dose: 1.0 mg/kg/injection, schedule: Q01DX009 (ip), vehicle: Klucel (hydroxypropylcellulose) (HPC)): 97 % of control

O=C(OC1CC2CC1C1CSCC21)c1ccc([N+](=O)[O-])cc1 (stereo unspecified)
T/C [9]: 101 % of control
T/C [1]: 105 % of control
T/C [10]: 103 % of control
T/C [2]: 105 % of control
T/C [11]: 103 % of control
T/C [3]: 97 % of control

Cc1c(Cl)cccc1NC(=O)/C=C/C(=O)O
T/C [17]: 98 % of control
T/C [4]: 95 % of control
T/C [18]: 94 % of control
T/C [5]: 93 % of control
T/C [6]: 103 % of control

O=C(CBr)Nc1cccc(S(=O)(=O)F)c1
T/C (dose: 1.25 mg/kg/injection, schedule: Q01DX009 (ip), vehicle: carboxymethylcellulose (CMC)): 89 % of control
T/C (dose: 2.5 mg/kg/injection, schedule: Q01DX009 (ip), vehicle: carboxymethylcellulose (CMC)): 93 % of control
T/C (dose: 2.5 mg/kg/injection, schedule: Q04DX003 (ip), vehicle: carboxymethylcellulose (CMC)): 100 % of control
T/C (dose: 5.0 mg/kg/injection, schedule: Q01DX009 (ip), vehicle: carboxymethylcellulose (CMC)): 86 % of control
T/C (dose: 5.0 mg/kg/injection, schedule: Q04DX003 (ip), vehicle: carboxymethylcellulose (CMC)): 100 % of control
T/C (dose: 10.0 mg/kg/injection, schedule: Q01DX001 (ip), vehicle: carboxymethylcellulose (CMC)): 96 % of control
T/C (dose: 10.0 mg/kg/injection, schedule: Q04DX003 (ip), vehicle: carboxymethylcellulose (CMC)): 93 % of control

CCOCCOCCOC(C)Oc1ccc(Cl)cc1 (stereo unspecified)
T/C (dose: 100.0 mg/kg/injection, schedule: Q04DX002 (ip), vehicle: saline): 96 % of control
T/C (dose: 200.0 mg/kg/injection, schedule: Q04DX002 (ip), vehicle: saline): 90 % of control
T/C (dose: 400.0 mg/kg/injection, schedule: Q04DX002 (ip), vehicle: saline): 104 % of control

CC(C)(NC(=O)NCCCl)c1ccccc1
T/C [7]: 96 % of control

COC(=O)C1=C(\N2CCOCC2)CCCCC/C=C\1C(=O)OC
T/C [17]: 94 % of control
T/C [18]: 91 % of control
T/C (dose: 400.0 mg/kg/injection, schedule: Q01DX009 (ip), vehicle: saline with Tween-80): 89 % of control

Nc1nc(N)c2cc(CNc3ccc(C(=O)NC(CCCC(=O)O)C(=O)O)cc3)ccc2n1 (stereo unspecified)
T/C (dose: 0.25 mg/kg/injection, schedule: Q01DX009 (ip), vehicle: saline): 124 % of control
T/C (dose: 0.5 mg/kg/injection, schedule: Q01DX009 (ip), vehicle: saline): 117 % of control
T/C (dose: 2.0 mg/kg/injection, schedule: Q01DX009 (ip), vehicle: saline): 101 % of control
T/C (dose: 16.0 mg/kg/injection, schedule: Q04DX003 (ip), vehicle: saline): 92 % of control

O=c1[nH]cnc2c1nnn2C1CC(CO)C(O)C1O (stereo unspecified)
T/C (dose: 50.0 mg/kg/injection, schedule: Q04DX003 (ip), vehicle: saline): 92 % of control
T/C [15]: 92 % of control
T/C [16]: 96 % of control

CC(C)(C)c1cc(N)cc(C(C)(C)C)c1O
T/C (dose: 200.0 mg/kg/injection, schedule: Q04DX002 (ip), vehicle: saline with Tween-80): 87 % of control
T/C (dose: 400.0 mg/kg/injection, schedule: Q04DX002 (ip), vehicle: saline with Tween-80): 90 % of control

CCOC(=O)Nc1ccc(Cl)cc1
T/C [12]: 89 % of control
T/C [13]: 108 % of control
T/C [14]: 108 % of control
